Our source for the IC50 values is BindingDB's records for patent US20230391786 (Eli Lilly, 2023).

In this assay the target is Cyclic GMP-AMP synthase (Homo sapiens, UniProt Q8N884). Put plainly: In Vitro Inhibition Assay. Here is the method: In vitro inhibition assay of cGAS activity: Add a 5 μL mixture containing 10 mM Tris-Cl pH 7.5, 50 mM NaCl, 5 mM MgCl2, 1 mM DTT, 0.01% Triton X-100, 60 nM 75-bp dsDNA, […], 50 μM GTP, 10 nM of recombinant human cGAS, and serial dilutions of a test compound in DMSO to a 384-well plate and incubate at room temperature for 3 hours. Quench the reaction by the addition of 100 μL of stop solution containing 0.1% formic acid and 0.1 μM internal standard (3′3′-difluoro cGAMP). Measure the amount of cGAMP produced by RapidFire 365 mass spectrometry and evaluate inhibitory effect of a compound by plotting percent specific inhibition of cGAMP production against log concentration of the test compound.
Chain of Cyclic GMP-AMP synthase (Q8N884 whole entry): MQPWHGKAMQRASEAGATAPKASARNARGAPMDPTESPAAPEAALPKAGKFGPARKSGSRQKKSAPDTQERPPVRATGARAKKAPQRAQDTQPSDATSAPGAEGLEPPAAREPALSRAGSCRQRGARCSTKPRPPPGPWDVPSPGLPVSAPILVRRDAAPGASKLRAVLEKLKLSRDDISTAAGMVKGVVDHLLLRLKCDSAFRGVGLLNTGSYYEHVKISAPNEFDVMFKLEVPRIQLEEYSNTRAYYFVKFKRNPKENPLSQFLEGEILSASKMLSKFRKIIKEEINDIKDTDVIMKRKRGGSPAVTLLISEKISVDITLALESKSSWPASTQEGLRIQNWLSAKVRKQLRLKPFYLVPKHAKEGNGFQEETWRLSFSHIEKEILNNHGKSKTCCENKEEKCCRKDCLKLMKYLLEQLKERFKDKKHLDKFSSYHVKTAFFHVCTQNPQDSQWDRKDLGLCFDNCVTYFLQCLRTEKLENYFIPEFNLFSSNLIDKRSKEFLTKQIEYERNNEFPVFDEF
The IC50 is the concentration that inhibits the measured activity by half. The compound `Cn1ncnc1COCC(=O)N1CCn2c(c(-c3cn[nH]c3)c3c(OCC#N)cc(Cl)c(Cl)c32)C1` [US20230391786, Example 181] gave a 50% inhibitory concentration (IC50) of 16.5 nM. This lies in the double-digit nanomolar range.
For `O=C(CCn1cncn1)N1CCn2c(c(-c3cn[nH]c3)c3ccc(Cl)c(Cl)c32)C1` [US20230391786, Example 49] the value was 83.9 nM; for `NC1CCn2c1c(-c1cn[nH]c1)c1ccc(Cl)c(Cl)c12` (centres undefined) [US20230391786, Example 241], 62.5 nM; for `OCCn1cc(-n2cc(-c3cn[nH]c3)c3ccc(Cl)cc32)nn1` [US20230391786, Example 229], 96.5 nM.
